The record followed here is ChEMBL document CHEMBL4043133, “Discovery of a novel B-cell lymphoma 6 (BCL6)-corepressor interaction inhibitor by utilizing structure-based drug design” (Bioorg Med Chem, 2017).

≈ marks a conversion by molar mass, not a printed value. Bounds are passed on as bounds.

Data set [1] deals with T1, B-cell lymphoma 6 protein (Homo sapiens, UniProt P41182). Put plainly: Displacement of A488-SMRT from BCL6 BTB domain (unknown origin) by fluorescence polarization assay.
The target of data set [2] is T2, BCoR-BCL6 (Homo sapiens, UniProt P41182).
Description: Inhibition of C-terminal biotin-labelled BCoR/wild-type BCL6 BTB domain (unknown origin) protein-protein interaction by ELISA
Data set [3] is described as follows: Aqueous solubility of the compound in aqueous buffer at pH 6.8 by UV-absorbance analysis. It counts as physicochemical.
Data set [4] in a line: Permeability of the compound at pH 7.4 at 10 umol/L after 3 hrs by PAMPA. It counts as physicochemical. Conditions: for permeability: pampa, pH 7.4, 3 h, 10 µM; for Papp at 3 h, 10 µM: PAMPA, pH 7.4, read-out: permeability.
The nature of data set [5]: Cytotoxicity against human HepG2 cells assessed as intracellular ATP levels at 30 uM after 24 hrs by CellTiter-Glo assay relative to control. Format: cell-based. Conditions: read-out: Activity.
Data set [6] concerns the target T2, BCoR-BCL6. Put plainly: Inhibition of recombinant human BCoR (112 to 753 residues) protein interaction with recombinant GAL4-fused BCL6 (5 to 129 residues) expressed in HEK293T cells measured after 20 hrs by luciferase reporter gene based mammalian two-hybrid assay. Format: cell-based, HEK-293T.
The nature of data set [7]: Cmax in mouse at 1 mg/kg, po administered as cassette dosing. Also on record: dose 1 mg/kg, route oral. Conditions: in vivo. Format: ADME, organism-based.
Data set [8] can be described thus: Tmax in mouse at 1 mg/kg, po administered as cassette dosing. Format: ADME, organism-based. Conditions: in vivo.
A short description of data set [9]: AUC in mouse at 1 mg/kg, po administered as cassette dosing. Format: ADME, organism-based. Conditions: in vivo.
Data set [10] is described as follows: Mean residence time in mouse at 1 mg/kg, po administered as cassette dosing. Conditions: in vivo. Format: ADME, organism-based.
Data set [11] is described as follows: Oral bioavailability in mouse at 1 mg/kg administered as cassette dosing. Format: ADME, organism-based. Conditions: in vivo.
Data set [12] can be described thus: Total clearance in mouse at 1 mg/kg, po or 0.1 mg/kg, iv administered as cassette dosing. Conditions: in vivo. It counts as ADME, organism-based.
The nature of data set [13]: Volume of distribution at steady state in mouse at 1 mg/kg, po or 0.1 mg/kg, iv administered as cassette dosing. Conditions: in vivo, read-out: Vdss. Format: ADME, organism-based.
The target of data set [14] is T1, B-cell lymphoma 6 protein.
Description: Binding affinity to wild-type avi-tagged BCL6 BTB domain (unknown origin) by SPR analysis

Regarding `O=C(O)CC(C(=O)O)N1C(=O)/C(=C2/C(=O)Nc3ccc(Br)cc32)SC1=S` (centres undefined), the IC50 in data set [1] stood at 212 µM; in [2], 200 µM.
In data set [2], `O=c1[nH]c2ccc(Nc3ccc([N+](=O)[O-])cc3Br)cc2[nH]1` came in with an IC50 of 83 µM.
For the compound `COC(=O)c1ccc(Nc2ccc3[nH]c(=O)[nH]c3c2)c(Cl)c1`, the IC50 in data set [2] was 8.6 µM.
For `O=C(O)CCNc1cc(Nc2ccc3[nH]c(=O)[nH]c3c2)c(Cl)cc1[N+](=O)[O-]`, the solubility in [3] is greater than 72 µg/mL. For the same compound, the permeability result in data set [4] is on record as “Impermeable”. In [2], this compound showed an IC50 of 0.13 µM.
For `O=C1Cc2cc(Nc3cc(OC4CCOCC4)c([N+](=O)[O-])cc3Cl)ccc2N1`, the concentration in solution in [3] (solubility) was 12 µg/mL (≈ 29.7 µM). For the same compound, in data set [4], the Papp at 3 h, 10 µM came out at 28.8 ×10⁻⁶ cm/s. Further, the viability at 24 h, 30 µM in data set [5] worked out at 99%.
Compound `Nc1cc(Nc2ccccc2)c2nonc2c1[N+](=O)[O-]` displayed a half-inhibitory concentration (IC50) in data set [2] of 69 µM.
The compound `O=C1CCc2cc(Nc3cc(OC4CCOCC4)c([N+](=O)[O-])cc3Cl)ccc2N1` registered a solubility in [3] of 12 µg/mL (≈ 28.7 µM). Moreover, in data set [4], the Papp at 3 h, 10 µM was determined as 20.6 ×10⁻⁶ cm/s. The viability at 24 h, 30 µM in data set [5] is 83%. Besides, the IC50 in [6] was found to be 0.72 µM; in data set [2], 0.1 µM. In data set [7], this compound yielded a Cmax of 233 ng/mL. Besides, the Tmax in [8] came out at 2 h. The AUC in data set [9] was determined as 1270 ng·h/mL. The compound also showed a mean residence time (MRT) in data set [10] of 3.3 h. In addition, the bioavailability in data set [11] is 79.9%. In addition, the clearance in [12] was 10.5 mL/min/kg. Moreover, in [13], the Vd was 1.51 L/kg.
As to `N#Cc1cc([N+](=O)[O-])ccc1Nc1ccc2[nH]c(=O)[nH]c2c1`, the IC50 in data set [2] turned out to be 4.3 µM.
In turn, `NC(=O)c1ccc(Nc2ccc3[nH]c(=O)[nH]c3c2)c(Cl)c1` registered a 50% inhibitory concentration (IC50) in [2] of 43 µM.
For the compound `O=c1[nH]c2ccc(Nc3cc(NC4CCOCC4)c([N+](=O)[O-])cc3Cl)cc2[nH]1`, the solubility in [3] came out at 0.61 µg/mL (≈ 1.51 µM). In data set [4], the Papp at 3 h, 10 µM worked out at 10.1 ×10⁻⁶ cm/s. In [2], this compound returned an IC50 of 0.13 µM.
`O=c1[nH]c2ccc(Nc3ccc([N+](=O)[O-])cc3Cl)cc2[nH]1` yielded a concentration for half-maximal inhibition (IC50) in [2] of 4.5 µM. In data set [14], the affinity, expressed as Kd, was 5 µM.
For `CCOC(=O)CCNc1cc(Nc2ccc3[nH]c(=O)[nH]c3c2)c(Cl)cc1[N+](=O)[O-]`, the solubility in data set [3] stood at 0.42 µg/mL (≈ 1 µM). Besides, the Papp at 3 h, 10 µM in data set [4] is 15.1 ×10⁻⁶ cm/s. The compound further came in with a half-inhibitory concentration (IC50) in data set [2] of 0.43 µM.
Regarding `O=c1[nH]c2ccc(Nc3cc(NCc4cccnc4)c([N+](=O)[O-])cc3Cl)cc2[nH]1`, in data set [3], the solubility was less than 0.23 µg/mL. Further, the Papp at 3 h, 10 µM in [4] amounted to 14.7 ×10⁻⁶ cm/s. Moreover, the IC50 in [2] was found to be 0.15 µM.
In the case of `O=c1[nH]c2ccc(Nc3ccc([N+](=O)[O-])cc3C(F)(F)F)cc2[nH]1`, the half-maximal inhibitory concentration (IC50) in data set [2] was greater than 300 µM.
Compound `O=c1[nH]c2ccc(Nc3cc(OC4CCOCC4)c([N+](=O)[O-])cc3Cl)cc2[nH]1` displayed a solubility in data set [3] of 18 µg/mL (≈ 44.5 µM). In data set [4], the Papp at 3 h, 10 µM amounted to 4.5 ×10⁻⁶ cm/s. The viability at 24 h, 30 µM in data set [5] stood at 100%. In data set [2], this compound came in with a 50% inhibitory concentration (IC50) of 0.22 µM.
Turning to `N#Cc1ccc(Nc2ccc3[nH]c(=O)[nH]c3c2)c(Cl)c1` [TP-021n], in data set [2], the IC50 was 110 µM.
Same read-out and setting: then `O=C(O)c1ccc(Nc2ccc3[nH]c(=O)[nH]c3c2)c(Cl)c1`, with 62 µM.
`O=c1[nH]c2ccc(Nc3cc(NCCCO)c([N+](=O)[O-])cc3Cl)cc2[nH]1`: the solubility in data set [3] came out at 0.09 µg/mL (≈ 0.238 µM). In [4], the permeability result was “Impermeable”. For the same compound, the half-inhibitory concentration (IC50) was greater than 100 µM in data set [6] and 0.24 µM in [2].
On to `O=[N+]([O-])c1c(NCCCO)cc(Nc2ccc(F)cc2)c2nonc12`, for which the IC50 in data set [2] was determined as 14 µM. This compound had an equilibrium dissociation constant (Kd) in data set [14] of 24 µM.
